Measured values taken from patent US7968600B2, “Medicament for preventive and therapeutic treatment of physical dysfunction caused by nerve damage” (Nanoegg Research Laboratories, Inc., priority 2007, dated 2011).

Legend:
regenerated nerves = details: 50 μL (10 nM RA); cited from earlier work
[1] = system: traumatic spinal cord injury model rats; assay: Treadmill test (compulsory walking) in traumatic spinal cord injury model rats; assay type: in vivo, Wistar rats; details: for Number of contact to back end wall: 21st day from the injury, treadmill 8 m/min for 5 min, **p < 0.01; for number of the contact with the back end wall as compared to the control group / walking period as compared to the control group: treadmill test
Procedure: (§1) 23 of 9 weeks old female Wistar rats had on their spinal cords of the thoracic vertebrae injured under anesthesia by loading a weight of 10 g dropped from a height of 2.5 cm to prepare traumatic spinal cord injury model rats with impaired motor function of the hind limb. The 23 rats were divided into the following 3 groups: • 1st Group: 8 rats were administered orally with 3 mg/kg of 4-[(5,6,7,8-tetrahydro-5,5,8,8-tetramethyl-2-naphthalenyl)carbamoyl]benzoic acid once before the injury and then once a day. • 2nd Group: 8 rats were administered with 0.15 mg/kg of 4-[(5,6,7,8-tetrahydro-5,5,8,8-tetramethyl-2-naphthalenyl)carbamoyl]benzoic acid directly to the injured site immediately after the injury, and then administered subcutaneously once a day near the injured area. • 3rd Group: 7 rats were administered orally with 1 ml/kg of 0.5% carboxymethyl cellulose (CMC) solution as a control group.
(§2) Administration was performed every day for 21 days after the injury for each group. The motor function of the hind limb was evaluated according to the Basso-Beattie-Bresnahan (BBB) score every day up to 21st day, and 28th day after the injury. For animals with BBB scores being 10 or more, evaluation of the motor function was performed by using a treadmill (manufactured by Muromachi Kikai Co., Ltd) on the 21st and the 28th day. The treadmill tests were performed for 5 minutes with velocity of the treadmill walking surface being kept at 8 m/min. In the test, a period of time during which the animal walked with four legs was measured, and in addition, total number of the contact of the animal with the end wall of the walking surface due to the stop walking of the animal was measured, thereby motor function was evaluated.

[2] = system: traumatic spinal cord injury model rats; assay: Basso-Beattie-Bresnahan (BBB) score, motor function of the hind limb in traumatic spinal cord injury model rats; assay type: in vivo, Wistar rats; details: for BBB score: 21st day from the injury; for BBB scores compared to the control group (FIG. 1): time course after the injury
Procedure: as §1, §2

SMILES | increase of regenerated nerves (regenerated nerves) | recovery in nerve and motor functions (regenerated nerves) | Number of contact to back end wall ([1]; oral 3.0 mg/kg once a day) | number of the contact with the back end wall as compared to the control group ([1]; oral administration) | walking period as compared to the control group ([1]; oral administration) | Number of contact to back end wall ([1]; subcutaneous 0.15 mg/kg once a day) | number of the contact with the back end wall as compared to the control group ([1]; subcutaneous administration) | walking period as compared to the control group ([1]; subcutaneous administration) | BBB score ([2]; oral 3.0 mg/kg once a day) | BBB scores compared to the control group (FIG. 1) ([2]; oral 3 mg/kg) | BBB score ([2]; subcutaneous 0.15 mg/kg once a day, *p < 0.05) | BBB scores compared to the control group (FIG. 1) ([2]; subcutaneous 0.15 mg/kg)
CC1=C(/C=C/C(C)=C/C=C/C(C)=C/C(=O)O)C(C)(C)CCC1 [Vitamin A acid, all-trans retinoic acid] | 30% | no recovery |  |  |  |  |  |  |  |  |  | 
CC1(C)CCC(C)(C)c2cc(NC(=O)c3ccc(C(=O)O)cc3)ccc21 [4-[(5,6,7,8-tetrahydro-5,5,8,8-tetramethyl-2-naphthalenyl)carbamoyl]benzoic acid] |  |  | 16.0 ± 8.3(**) | remarkable decrease | prolongation of the walking period | 13.4 ± 6.7(**) | remarkable decrease | prolongation of the walking period | 11.43 ± 3.80 ^ | significantly improved BBB scores | 12.71 ± 2.28(*) | significantly improved BBB scores
